Source: patent publication US10849847B2, “Compositions and methods for treating rosacea and acne” (Foamix Pharmaceuticals Ltd., priority 2016, dated 2020)
Where two headings read alike, the source gives them in different places.

Legend:
[1] = for Compatibility with Minocycline HCl: tested after the storage for up to 3 weeks; for Compatibility with Minocycline HCl (observations): on dissolution / storage
Experimental: The ratio between MCH and the tested excipient is detailed below. Visual inspection was the major criterion for indication of compatibility. The color of intact MCH suspension is pale yellow; and any change of color (e.g., to dark orange, red, green, brown and black) indicates oxidation or degradation.
Other than hydrogenated castor oil, beeswax, paraffin and hard fat, the aforesaid items listed are oily emollients.
Additives were tested for compatibility with MCH. […] In parallel, antioxidants were added to the MCH suspensions comprising water.

[2] = Doxycycline Hyclate Compatibility Test; type: physicochemical
Experimental: (§1) A similar compatibility study was conducted for Doxycycline Hyclate and Doxycycline Monohydrate.
(§2) Different compositions of hydrophilic and hydrophobic solvents containing Doxycycline Hyclate (Set I and Set II) and Doxycycline Monohydrate (Set III) were prepared by weighing the antibiotic in a glass vial and shaking overnight with each solvent investigated.
Group II included Doxycycline Hyclate mixed with various vehicles with addition of antioxidants like alpha tocopherol, butylated hydroxytoluene (BHT), and ascorbic acid.

[3] = Doxycycline Monohydrate Compatibility Test; type: physicochemical
Experimental: as §1, §2
A similar compatibility test was performed on another form of Doxycycline—Doxycycline Monohydrate.

[4] = foam adjuvants, MCH:excipient 1:50
[5] = hydrophilic solvents, MCH:excipient 1:250, 25° C. and 40° C., maximum sixty days
[6] = tested after the storage for up to 3 weeks
[7] = mixtures stored at 25° C., 40° C. and 50° C. for two weeks
[8] = oily emollients, MCH:excipient 1:250, 25° C. and 40° C., maximum sixty days

Compound | Compatibility with MCH [1, 4] | Compatibility with MCH [1, 5] | Compatibility with Minocycline HCl [1] | Compatibility with Doxycycline Hyclate [2, 6] | Compatibility with Doxycycline Monohydrate [3, 6] | further results
CCCCCCCCCCCCCCCCCCCCCCO [Behenyl alcohol] | compatible |  |  |  |  | 
OCCCCO [Butylene Glycol] |  | incompatible | No | No | No | 
CCCCCCCCCCCCCCCCO [Cetyl alcohol] | compatible |  |  |  |  | 
C[Si]1(C)O[Si](C)(C)O[Si](C)(C)O[Si](C)(C)O[Si](C)(C)O1 [Cyclomethicone 5 NF] |  |  | Yes | Yes | Yes | 
CCOCCOCCO [Diethylene glycol monoethyl ether] |  | incompatible |  |  |  | 
CO[C@H]1CO[C@H]2[C@@H]1OC[C@H]2OC [Dimethyl Isosorbide] |  | incompatible | No | No | No | 
C[S+](C)[O-] [Dimethyl Sulfoxide] |  | incompatible |  |  |  | 
OCC(O)CO [Glycerin] |  | incompatible | No | No | No | Compatibility with Minocycline HCl (observations) [1]: intensive oxidation
CCCCCCCCCCCCCCCCCC(=O)OCC(O)CO (stereo not drawn) [Glyceryl monostearate] |  |  |  |  |  | Compatibility with MCH ([1]; surfactants solubilized in mineral oil, MCH:excipient 1:50): incompatible
CC(O)CC(C)(C)O (stereo not drawn) [Hexylene Glycol] |  | incompatible | No |  | No | Compatibility with Doxycycline Monohydrate [3, 7]: oxidized
CCCCCCCCCCCCCC(=O)OC(C)C [Isopropyl myristate] |  |  |  |  |  | Compatibility with MCH [1, 8]: compatible
CC(C)CCCCCCCCCCCCCCC(=O)O [Isostearic acid] | not compatible |  | No | Yes |  | 
CC(C)CCCCCCCCCCCCCCCO [Isostearyl alcohol] | compatible |  |  |  |  | 
CC1CCC(C(C)C)C(O)C1 (stereo not drawn) [Menthol] |  |  |  |  |  | Compatibility with MCH ([1]; additives, MCH:excipient 1:50): compatible
CCCCCCCCCCCCCCO [Myristyl alcohol] | compatible |  | Yes | Yes |  | 
CCCCCCCCCCC(CO)CCCCCCCC (stereo not drawn) [Octyl dodecanol] |  |  | Yes | No | No | Compatibility with MCH [1, 8]: compatible; Compatibility with Minocycline HCl (observations) [1]: full compatibility; Compatibility with Doxycycline Hyclate [2, 7]: incompatibility; Compatibility with Doxycycline Monohydrate [3, 7]: incompatibility
CCCCCCCC/C=C\CCCCCCCC(=O)O [Oleic acid] | compatible |  |  |  |  | 
CCCCCCCC/C=C\CCCCCCCCO [Oleyl alcohol] | compatible |  | Yes | Yes |  | 
